From patent US5541232A, “Treatment of multidrug resistant diseases” (Chemex Pharmaceuticals, Inc., priority 1994, dated 1996)
“Also recorded” adds a separate entry of the source. Read-outs that look alike come from different tables or passages of the source.

Columns and labels:
SNB Glioblastoma cells = assay: in vitro cytotoxicity anti tumor activity; format: cell-based; conditions: read-out: IC50
WI-38 Lung Fibroblasts = assay: in vitro cytotoxicity, normal cells; format: cell-based; conditions: Homo sapiens, WI-38, 1 h; One Hour Pulse Treatment; read-out: IC50
CAK-1 Renal cancer cells = assay: in vitro cytotoxicity anti tumor activity; format: cell-based; conditions: read-out: IC50
[1] = test system: Detroit 551 Skin Fibroblasts; assay: in vitro cytotoxicity, normal cells; format: cell-based; conditions: Homo sapiens, read-out: IC50
[2] = test system: GRC-1 multidrug resistant human cervical carcinoma cells; assay: initial influx of VBL, GRC-1; format: cell-based; conditions: 50 μM masoprocol added concurrently with VBL, 3 to 24 seconds; FIG. 4a
Protocol: A further test was conducted to show the effect of masoprocol on the initial influx of VBL. Cells were exposed to media containing [^3 H]VBL with and without 50 μM masoprocol. After incubation times ranging from 3 seconds to 24 seconds, the media was removed. The amount of VBL taken up by the cells was determined as described in A. The data was summarized from four replicate experiments. FIG. 4apresents the results for the GRC-1 cell line, and FIG. 4b for the KB-3-1 cell line.

[3] = test system: MCF7/0 human breast adenocarcinoma cells; assay: flow cytometry P-glycoprotein function assay of doxorubicin efflux, MCF7/0 (doxorubicin sensitive); format: cell-based
Protocol: (§1) The following tests were preformed to determine the effect of NDGA on efflux of doxorubicin (hereinafter sometimes referred to as DOX) for doxorubicin sensitive MCF7/0 and doxorubicin resistant MCF7/ADR human breast adenocarcinoma cells in vitro.
(§2) The cells were exposed to 50 μg/ml NDGA for 24 hrs prior to loading with DOX (doxorubicin) at 37° C. […] PBS. Flow analysis of cell efflux of DOX was collected over 30 minutes using the time parameter.
(§3) Procedure for P-Glycoprotein (PGP) Function Assay of Doxorubicin Efflux is shown hereunder.
(§4) 1. […] Store at room temperature.
(§5) 2. Doxorubicin (GFW=580) Make a solution of doxorubicin to contain 10 μg/ml. Store frozen at 0° C.
(§6) 4. NDGA (MW=302.36) Make a solution of NDGA to contain 50 μg/ml. Store frozen at 0° C.
(§7) 5. MCF7/0 (Doxorubicin sensitive) and MCF7/ADR (Doxorubicin resistant), human breast adenocarcinoma cell lines.
(§8) 1. Make up 2×10^6 cells per ml in PBS. Expose 1 ml of cells to 50 μg of NDGA for 24 hrs at 37° C. prior to loading with Doxorubicin.
(§9) 2. Add 1 ml of 10 μg/ml doxorubicin, mix and divide into two aliquots.
(§10) 4. Incubate both tubes at 37° C. for 30 minutes.
(§11) 5. Centrifuge the tubes at 37° C. for 5 minutes on a fast spin to pellet cells. Resuspend in 1 ml of buffer.
(§12) 6. Run immediately on the flow cytometer. Excitation 488 nm, emission 560-600 nm. Collect forward and 90° side scatter and PMT4 linear scale. Collect 10,000-50,000 events and calculate the mean channel fluorescence (MCF) for PMT4.
(§13) 7. Run both samples as close together as possible, and avoid prolonged exposure to room temperature.

[4] = test system: GRC-1 multidrug resistant human cervical carcinoma cells; assay: inhibition of colony formation, GRC-1; format: cell-based; conditions: Homo sapiens, 240 h, read-out: IC50 (Masoprocol), 50% inhibition of colony formation; 10 days, 37° C.; parenthesis: standard deviation
From the text: To investigate whether masoprocol modulates multidrug resistance, a line of multidrug resistant (GRC-1) cells which were derived from parenteral drug sensitive human cervical carcinoma (KB-3-1) cells by transfection of the mdr1 genes were employed. Such transfection was by the method set forth in Choi, et al., Cell 53:519-529, 1989. These cell lines differ only with respect to the over-expression of P-glycoprotein. These tests were designed to examine whether masoprocol modulates tumor cell drug resistance by interfering with P-glycoprotein function. […] See, Regulation of initial vinblastine influx by P-glycoprotein, Shalinsky, et al., cited above.
Masoprocol was provided by Chemex Pharmaceuticals, Inc. (Fort Lee, N.J.). Tritiated vinblastine ([^3 H]VBL) (10 Ci mmol^-1) was purchased from Moravek Biochemicals (Brea, Calif.), stored in the dark at -80° C. and protected from light during the experiments. Dipyridamole (DPM) was provided by Boerhinger Ingelheim Pharmaceuticals, Inc. (Ridgefield, Conn.).
(§14) Drug-sensitive KB-3-1 cells and the drug resistant subline (KB-GRC-1) were obtained from Dr. Igor Roninson (University of Illinois, College of Medicine, Chicago, Ill.). Cells were maintained in Dulbecco's modified Eagle's medium supplemented with 10% fetal bovine serum and 2 mM glutamine. The KB-GRC-1 cells were maintained in medium supplemented with 6 ng/ml colchicine.
First, cells which had been seeded at 200-300 cells/dish were incubated in media containing masoprocol or VBL. After an incubation period of 10 days at 37° C. the cells were fixed with methanol and stained with Giemsa, and the number of colonies per dish were counted and expressed as a percent of the number of colonies in control conditions. […] Parenthesis indicate standard deviations determined from replicate experiments.

[5] = test system: KB-3-1 human cervical carcinoma cells; assay: modulation of VBL toxicity (colony formation), KB-3-1; format: cell-based; conditions: 25 μM masoprocol, 10 days, 37° C.
Protocol: as §14
(§15) To test the modulation of VBL toxicity by masoprocol, cells which had been seeded at 200-300 cells/dish were incubated in media containing various concentrations of VBL in the absence or presence of 25 μM masoprocol. After an incubation period of 10 days at 37° C. the cells were fixed and stained, and the number of colonies per dish were counted and expressed as a percent of the number of colonies formed in control conditions. 1.

human cancer patients = conditions: cited from earlier work
[6] = test system: MCF7/ADR human breast adenocarcinoma cells; assay: flow cytometry P-glycoprotein function assay of doxorubicin efflux, MCF7/ADR (doxorubicin resistant); format: cell-based
Protocol: as §1, §2, §3, §4, §5, §6, §7, §8, §9, §10, §11, §12, §13

[7] = test system: benign, paramalignant and malignant growth of the skin; conditions: in combination with ionic zinc; cited from earlier work
[8] = test system: several types of cancer cells; conditions: Cancer Chemotherapy National Service Center; cited from earlier work
[9] = test system: multidrug resistant tumor cells; assay: effects on vincristine (VBL substituted by vincristine in Example 3); format: cell-based
From the text: In accordance with the invention VBL can be substituted by vincristine in Example 3.

[10] = test system: human breast adenocarcinoma; conditions: cited from earlier work
[11] = test system: GRC-1 multidrug resistant human cervical carcinoma cells; assay: modulation of VBL toxicity (colony formation), GRC-1; format: cell-based; conditions: 25 μM masoprocol, 10 days, 37° C.
Protocol: as §14, §15

[12] = Continuous Drug Exposure, observation at 70 hours

- IC50 [4]: 66.8 µM
Structure (SMILES): C[C@H](Cc1ccc(O)c(O)c1)[C@@H](C)Cc1ccc(O)c(O)c1 [Masoprocol, meso-1,4-bis (3,4-dihydroxyphenyl)-2,3-dimethylbutane]
- IC50 (SNB Glioblastoma cells; 1 h, One Hour Pulse Treatment): 312 µM
- IC50 (SNB Glioblastoma cells; [12]): 0.08 µM
- IC50 (WI-38 Lung Fibroblasts): 159 µM
- IC50 (CAK-1 Renal cancer cells; 1 h, One Hour Pulse Treatment): 211 µM
- IC50 (CAK-1 Renal cancer cells; [12]): 53.4 µM
- IC50 ([1]; Detroit 551, 1 h, One Hour Pulse Treatment): 62.7 µM
- IC50 ([1]; Detroit 551, Continuous Drug Exposure, observation at 70 hours): 312 µM
- initial VBL uptake (influx) [2]: substantial increase in initial VBL uptake; also recorded: effective modulator of initial VBL influx; also recorded: promotes the initial uptake of VBL
- activation at 50 µg/mL ([3]; Homo sapiens, MCF7, 24 h, read-out: % DOX increase w/NDGA): 44.5%
- DOX loading / retention / accumulation (in words) ([3]; sensitive cells): loading more DOX after NDGA treatment than controls or verapamil treated cells
- effect on VBL cytotoxicity / colony formation [5]: increase in the cytotoxicity of VBL; also recorded: increases the cytotoxic effect of VBL
- stimulation of tumor cell growth (human cancer patients; in some cases): in some cases caused stimulation of tumor cell growth
- effectiveness as anticancer agent (human cancer patients; ingested tea made from creosote bush or pure NDGA): neither NDGA nor the tea were effective anticancer agents
- activation at 50 µg/mL ([6]; Homo sapiens, NCI/ADR-RES, 24 h, read-out: % DOX increase w/NDGA): 25.6%
- DOX loading / retention / efflux (in words) ([6]; resistant cells, listed as NDGA): augmentation of DOX retention; also recorded: will inhibit the efflux of DOX
- effectiveness in treatment of growth of the skin [7]: effective
- result in screening against cancer cells [8]: negative results
- effects on vincristine compared with VBL [9]: comparative effects
- effectiveness against human breast adenocarcinoma [10]: particularly effective
- effect on VBL cytotoxicity / colony formation [11]: increase in the cytotoxicity of VBL; also recorded: increases the cytotoxic effect of VBL
